Test results reported in patent EP2730586B1, “PROTEIN-P[…] OBTAINED FROM TISSUES OF HOOFED LIVESTOCK EMBRYOS, PROCESS FOR PREPARING SAME AND PHARMACEUTICAL COMPOSITION” (Aktsionernoe Obschestvo "Pharm-Sintez", priority 2011, dated 2012).

Test system: mice marrow cells
Description: The study objective was detection and quantitative estimate of cytogenetic (mutagenic) activity of pharmacologic substances in polychromatophil cells (PCC) of mammal marrow. The method is based on microscopic recording of cells with micronuclei.
The experiments were performed to 2 months old male and female F1 (CBAx C57BI6/J) cross-breed mice weighing 18-20 g. Each group included 6 animals. The animals were kept at 12 hours light pattern with free food and water access. […] Three sessions of experiments were carried out with corresponding controls: therapeutic dose was tested on male animals with a single introduction; subtoxic dose was tested on male animals with a single introduction; therapeutic dose was tested on male animals with a single introduction; subtoxic dose was tested on male animals and female with five-time introduction.
Seven animal groups were formed: four experimental groups and three corresponding reference groups. The substance in the amount of 0.1 mg/kg was introduced five times at 24 hours interval to males and females. All animals were sacrificed 6 hours upon the last introduction of the protein/polypeptide complex.
In two other experimental groups, the protein/polypeptide complex was introduced in single dosing to males in doses of 0.2 mg/kg and 0.5 mg/kg.
Normal saline solvent was used as a negative control. It was introduced intraperitoneally to male and female mice of two reference groups for the same period and in the same amount as to the experimental animals.
Marrow cell preparations for micronuclei count were made by a standard method in compliance with guidelines [formula] […] The animals were sacrificed through cervical dislocation 6 hours after the last introduction. Both thigh bones were detached and muscles were removed from them. In order to wash out the marrow, fetal calf serum was used (produced by NPP PanEko). The marrow from both thigh bones was washed out into a microtube using a syringe. […] 2,000 polychromatophil cells from each animal were analyzed in encoded preparations.

O=P1(N(CCCl)CCCl)NCCCO1 (stereo not drawn) [Cyclophosphamide, cyclophosphamide]
polychromatophilic to normochromatic erythrocytes ratio (20 mg/kg, compared to control P<0.005): shift to the latter | increased frequency of micronucleus cells (male mice, 20 mg/kg intraperitoneally, versus reference, P<0.001): 19.6 times | frequency of micronucleus cells (male mice, 20 mg/kg intraperitoneally, 3.16 % in reference): 62.1%
